For this experiment, the target named is T1, human TLR7 (Homo sapiens, UniProt Q9NYK1).
T1 sequence (Q9NYK1 27-1049): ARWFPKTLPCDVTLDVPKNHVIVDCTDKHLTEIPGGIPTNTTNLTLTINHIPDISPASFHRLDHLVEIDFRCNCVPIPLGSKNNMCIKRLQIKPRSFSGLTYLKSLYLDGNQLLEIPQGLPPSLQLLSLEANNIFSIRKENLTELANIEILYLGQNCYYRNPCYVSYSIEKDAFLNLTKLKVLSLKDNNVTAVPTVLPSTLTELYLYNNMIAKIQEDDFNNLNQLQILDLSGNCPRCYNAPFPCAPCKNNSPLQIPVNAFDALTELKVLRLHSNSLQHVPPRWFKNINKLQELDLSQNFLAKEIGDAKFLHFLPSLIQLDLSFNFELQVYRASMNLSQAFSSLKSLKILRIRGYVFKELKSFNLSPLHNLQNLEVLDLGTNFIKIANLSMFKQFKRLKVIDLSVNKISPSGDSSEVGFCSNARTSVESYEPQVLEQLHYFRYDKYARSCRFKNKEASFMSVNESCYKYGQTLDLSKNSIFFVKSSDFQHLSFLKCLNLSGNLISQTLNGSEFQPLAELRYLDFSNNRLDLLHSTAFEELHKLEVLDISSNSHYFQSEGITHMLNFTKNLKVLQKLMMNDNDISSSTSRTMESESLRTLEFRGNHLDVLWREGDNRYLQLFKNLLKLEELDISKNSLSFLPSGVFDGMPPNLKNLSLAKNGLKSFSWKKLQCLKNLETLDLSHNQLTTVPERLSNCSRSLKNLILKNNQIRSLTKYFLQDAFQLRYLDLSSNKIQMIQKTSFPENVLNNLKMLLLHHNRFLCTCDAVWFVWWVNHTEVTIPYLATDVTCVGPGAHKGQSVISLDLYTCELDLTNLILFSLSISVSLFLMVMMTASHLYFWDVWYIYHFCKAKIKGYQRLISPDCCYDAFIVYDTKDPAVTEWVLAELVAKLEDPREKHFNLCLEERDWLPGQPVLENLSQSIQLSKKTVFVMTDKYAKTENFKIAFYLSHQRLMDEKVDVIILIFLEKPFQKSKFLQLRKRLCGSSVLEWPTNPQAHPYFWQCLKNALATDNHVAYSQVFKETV
Description: HEK293-Blue-hTLR-7 cells assay (SEAP reporter, R848 stimulation). It counts as cell-based. Particulars: HEK293-Blue-hTLR7 cells, R848 ligand, 20 hrs incubation. In outline:
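Antagonism measured in stable HEK293-Blue-hTLR7 cells carrying an NF-κB/AP-1-driven SEAP reporter, stimulated with R848 (10 µL of 20 µM stock) with serially diluted compound, 1% DMSO, 20 h at 37 °C. Supernatant SEAP read with QUANTI-Blue after 2 h at 37 °C, absorbance 620–655 nm.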
In turn, `N#Cc1ccc(N2CC(CN3CCNCC3)C3(CC3)C2)c2nccnc12` (centres unmarked) [Example 3, 8-[7-(piperazin-1-ylmethyl)-5-azaspiro[2.4]heptan-5-yl]quinoxaline-5-carbonitrile] showed an IC50 of 27 nM.
Regarding `N#Cc1ccc(N2CC(CN3CC4CCC(C3)C4N)C3(CC3)C2)c2nccnc12` (centres unmarked) [Example 4, 8-[7-[(8-Amino-3-azabicyclo[3.2.1]octan-3-yl)methyl]-5-azaspiro[2.4]heptan-5-yl]quinoxaline-5-carbonitrile], 28 nM corresponded to half-maximal inhibition (IC50).
`CN(C)[C@@H]1CCN(C[C@H]2CN(c3ccc(C#N)c4nccnc34)C[C@@H]2C(F)(F)F)C1` [Example 83, 8-[(3S,4R)-3-[[(3R)-3-(dimethylamino)pyrrolidin-1-yl]methyl]-4-(trifluoromethyl)pyrrolidin-1-yl]quinoxaline-5-carbonitrile] displayed an IC50 of 25 nM.
In turn, `CN1CCC2(CCN(C[C@H]3CN(c4ccc(C#N)c5nccnc45)C[C@@H]3C(F)(F)F)C2)C1` (stereo partly drawn) [Example 84, 8-[(3S,4R)-3-[(7-methyl-2,7-diazaspiro[4.4]nonan-2-yl)methyl]-4-(trifluoromethyl)pyrrolidin-1-yl]quinoxaline-5-carbonitrile] had an IC50 of 48 nM.
The compound `CC1(CN)CCN(C[C@H]2CN(c3ccc(C#N)c4nccnc34)C[C@@H]2C(F)(F)F)C1` (stereo partly drawn) [Example 85, 8-[(3S,4R)-3-[[3-(aminomethyl)-3-methyl-pyrrolidin-1-yl]methyl]-4-(trifluoromethyl)pyrrolidin-1-yl]quinoxaline-5-carbonitrile] showed an IC50 of 83 nM.

These data come from patent US20210253575A1, “PYRROLIDINE AMINE COMPOUNDS FOR THE TREATMENT OF AUTOIMMUNE DISEASE” (Hoffmann-La Roche Inc., priority 2018, published 2021).
